Paper PMC8066426 (iScience, 2021)

How the values were obtained:
[1] = molecular target: T1, CorC (TpCorC) (Thermus parvatiensis, UniProt A0A109QFA5); experiment: competitive displacement of mant-ATP; type: binding
T1 sequence (A0A109QFA5 207-348): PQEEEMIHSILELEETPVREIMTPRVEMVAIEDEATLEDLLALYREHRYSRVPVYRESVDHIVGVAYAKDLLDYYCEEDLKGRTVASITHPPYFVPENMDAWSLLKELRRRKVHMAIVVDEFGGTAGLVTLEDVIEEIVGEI

[2] = molecular target: T1, CorC (TpCorC); experiment: FRET from endogenous Trp to bound mant fluorophore, saturation binding
[3] = molecular target: ATP-binding site mutant of the TpCorC cross-linking construct (T106C/C282A/Y255A/T336I) (Thermus parvatiensis); experiment: cross-linking
[4] = molecular target: TpCorC inter-subunit cross-linking mutant (T106C/C282A) (Thermus parvatiensis); experiment: cross-linking

Nc1ncnc2c1ncn2[C@@H]1O[C@H](COP(=O)(O)OP(=O)(O)OP(=O)(O)O)[C@@H](O)[C@H]1O [ATP]
IC50 [1]: 570 ± 80 nM

CNc1ccccc1C(=O)O[C@H]1[C@@H](O)[C@H](n2cnc3c(N)ncnc32)O[C@@H]1CO[P@@](=O)(O)O[P@](=O)(O)OP(=O)(O)O [mant-ATP, 2′(3′)-O-(N-methylanthraniloyl)adenosine 5′-triphosphate]
Kd [2]: 1360 ± 100 nM

ATP-binding site mutant of the TpCorC cross-linking construct (T106C/C282A/Y255A/T336I) (natural protein)
stoichiometry N [3]: 2

TpCorC inter-subunit cross-linking mutant (T106C/C282A) (natural protein)
stoichiometry N [4]: 2
